Measurements: paper PMC1322272 (2005)

Test system: 35mer RNA aptamer (RNA, aptamer) GGCGUGUAGGAUAUGCUUCGGCAGAAGGACACGCC
Assay: fluorescence quenching of ligand
Conditions: 50 mM NaCl, 10 mM MgCl2; 100 mM HEPES, 295 K; 1 µM ligand, RNA titrated

- ΔGassociation: -8.84 ± 0.24 kcal/mol
Structure (SMILES): Cc1cc2nc3c(=O)[nH]c(=O)nc-3n(C[C@H](O)[C@H](O)[C@H](O)COP(=O)(O)O)c2cc1C
